Experimental data taken from PMC8188729 (Nature, 2020).
“And” between values parts separate entries of the source, which are not always exact repeats. Equal entries are not always repeated.

What was measured:
[1] = Cytotoxicity assay; format: cell-based; details: human, MT-4 cells
[2] = Cytotoxicity assay; format: cell-based; details: human, Huh-7 cells
[3] = Cytotoxicity assay; format: cell-based; details: human, Gal-HepG2 cells
[4] = Cytotoxicity assay; format: cell-based; details: human, Gal-PC-3 cells
[5] = Cytotoxicity assay; format: cell-based; details: human, MRC-5 cells
[6] = Cytotoxicity assay; format: cell-based; details: human, primary human hepatocytes
[7] = Cytotoxicity assay; format: cell-based; details: human, quiescent PBMCs
[8] = Cytotoxicity assay; format: cell-based, human; details: human, stimulated PBMCs
[9] = Cytotoxicity assay; format: cell-based; details: human, primary CD4+ T-lymphocytes
[10] = Cytotoxicity assay; format: cell-based; details: human, monocyte-derived macrophages
[11] = tested on: HIV-1 recombinant strains resistant to NRTIs, NNRTIs, INSTIs, PIs or MIs; format: cell-based

Work on COc1ccc(C[C@H](N)C(=O)N[C@H]2[C@@H](O)[C@H](n3cnc4c(N(C)C)ncnc43)O[C@@H]2CO)cc1 [Puromycin, reference compound] yielded a CC50 [1] of 200 ± 100 nM, a CC50 [2] of 500 nM and a CC50 [3] of 1000 ± 1700 nM. For the same compound, the CC50 [4] was 400 nM, the CC50 [5] was 300 nM and the CC50 [6] was 1600 ± 600 nM. For the same compound, the CC50 [7] was 600 ± 1500 nM, the CC50 [8] was 200 ± 100 nM and the CC50 [9] was 200 ± 100 nM. The CC50 [10] was 4500 ± 2800 nM.

In the case of O=C1Nc2ccc(Cl)cc2[C@@](C#CC2CC2)(C(F)(F)F)O1 [EFV, efavirenz, reference compound], the Fold resistance [11] is reported as >22.5 (3).

In the case of COc1cc2c(cc1Cc1cccc(Cl)c1F)c(=O)c(C(=O)O)cn2[C@H](CO)C(C)C [EVG, elvitegravir, reference compound], the Fold resistance [11] is reported as >53.8 (3) and >52.9 (3).

In the case of C=C(C)[C@@H]1CC[C@]2(C(=O)O)CC[C@]3(C)[C@H](CC[C@@H]4[C@@]5(C)CC[C@H](OC(=O)CC(C)(C)C(=O)O)C(C)(C)[C@@H]5CC[C@]43C)[C@@H]12 [BVM, bevirimat, reference compound], the Fold resistance [11] is reported as >67.5 (6) and >67.5 (7).
